Test results as given in patent publication US12624018B1, “Inhibitors of RIPK2 and medical uses thereof” (Odyssey Therapeutics, Inc., priority 2022, dated 2026).

Target: T1, RIPK2 enzyme (Homo sapiens, UniProt O43353)
T1 construct: purchased Carna 09-128
Experiment: RIPK2 inhibition (ADP-Glo Kinase Assay)
Assay type: biochemical
Conditions: RIPK2 5 nM, ATP 150 μM, MBP substrate, read-out: RIPK2 IC50
Procedure, shortened: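 Human RIPK2 (5 nM) preincubated with compound 30 min at room temperature in 50 mM HEPES pH 7.5, 10 mM MgCl2, 2 mM DTT, 1 mM EGTA, 0.01% Brij-35, 0.05% BSA; native swine MBP as substrate. ADP formed quantified by ADP-Glo luminescence; percent inhibition relative to DMSO and no-enzyme controls.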

T1 sequence (O43353 1-299 limits assumed): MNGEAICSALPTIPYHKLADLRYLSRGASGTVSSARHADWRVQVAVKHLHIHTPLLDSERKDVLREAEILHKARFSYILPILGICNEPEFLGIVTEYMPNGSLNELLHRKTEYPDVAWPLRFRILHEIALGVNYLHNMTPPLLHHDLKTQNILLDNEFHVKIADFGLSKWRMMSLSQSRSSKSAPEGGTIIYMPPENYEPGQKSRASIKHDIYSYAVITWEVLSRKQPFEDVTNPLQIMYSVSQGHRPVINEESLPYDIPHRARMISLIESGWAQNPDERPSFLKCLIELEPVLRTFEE

Compound	IC50
CC(C)(C)n1cc(NC(=O)Cc2ccc(Oc3ccnc4ccc(S5(=O)=NCCC5)cc34)cc2F)cn1 (centres unmarked) [Compound 66, N-(1-(tert-butyl)-1H-pyrazol-4-yl)-2-(2-fluoro-4-((6-(1-oxido-4,5-dihydro-3H-1λ^6-isothiazol-1-yl)quinolin-4-yl)oxy)phenyl) acetamide]	< 2.5 nM
CC(C)(C)n1cc(NC(=O)Cc2ccc(Oc3ncnc4ccc(OC5CCNCC5)cc34)c(Cl)c2)cn1 [Compound 158, N-(1-(tert-butyl)-1H-pyrazol-4-yl)-2-(3-chloro-4-((6-(piperidin-4-yloxy)quinazolin-4-yl)oxy)phenyl) acetamide]	< 2.5 nM
Cn1nc(NC(=O)Cc2ncc(Oc3ccnc4ccc(S(C)(=O)=O)cc34)cc2F)cc1C(C)(C)C [Compound 41, N-(5-(tert-butyl)-1-methyl-1H-pyrazol-3-yl)-2-(3-fluoro-5-((6-(methylsulfonyl)quinolin-4-yl)oxy)pyridin-2-yl)acetamide]	7.6 nM
Cc1c(Oc2ccnc3ccc(C(=O)N4C[C@@H](C)N[C@@H](C)C4)cc23)ccc(CC(=O)Nc2cnn(C(C)(C)C)c2)c1F [Compound 385, N-(1-(tert-butyl)-1H-pyrazol-4-yl)-2-(4-((6-((3R,5S)-3,5-dimethyl-piperazine-1-carbonyl)quinolin-4-yl)oxy)-2-fluoro-3-methylphenyl) acetamide]	< 2.5 nM
COCCN(C)C(=O)c1ccc2nccc(Oc3ccc(CC(=O)Nc4cnn(C(C)(C)C)c4)c(F)c3C)c2c1 [Compound 343, 4-(4-(2-((1-(tert-butyl)-1H-pyrazol-4-yl)amino)-2-oxoethyl)-3-fluoro-2-methyl-phenoxy)-N-(2-methoxyethyl)-N-methyl-quinoline-6-carboxamide]	< 2.5 nM
CN(C)C1CCN(c2ccc3nccc(Oc4cnc(CC(=O)Nc5cnn(C(C)(C)C)c5)c(F)c4)c3c2)C1 (single isomer, unassigned) [Compound 140, N-(1-(tert-butyl)-1H-pyrazol-4-yl)-2-(5-((6-(3-(dimethylamino)pyrrolidin-1-yl)quinolin-4-yl)oxy)-3-fluoropyridin-2-yl)acetamide]	7.4 nM
CCOc1ccc2nccc(Oc3cnc(CC(=O)Nc4cnn(C(C)(C)C)c4)c(F)c3)c2c1 [Compound 48, N-(1-(tert-butyl)-1H-pyrazol-4-yl)-2-(5-((6-ethoxyquinolin-4-yl)oxy)-3-fluoropyridin-2-yl)acetamide]	9.2 nM
CCN1CCC(Oc2ccc3ncnc(Oc4ccc(CC(=O)Nc5cnn(C(C)(C)C)c5)cc4Cl)c3c2)CC1 [Compound 160, N-(1-(tert-butyl)-1H-pyrazol-4-yl)-2-(3-chloro-4-((6-((1-ethyl-piperidin-4-yl)oxy)quinazolin-4-yl)oxy)phenyl) acetamide]	< 2.5 nM
Cc1cc(CC(=O)Nc2cnn(C(C)(C)C)c2)ccc1Oc1ccnc2ccc(OC3CCCNC3=O)cc12 (centres unmarked) [Compound 308, N-(1-(tert-butyl)-1H-pyrazol-4-yl)-2-(3-methyl-4-((6-((2-oxopiperidin-3-yl)oxy)quinolin-4-yl)oxy)phenyl) acetamide]	< 2.5 nM
Cc1c(Oc2ccnc3ccc(C(=O)NCC4COC4)cc23)ccc(CC(=O)Nc2cnn(C(C)(C)C)c2)c1F [Compound 399, 4-(4-(2-((1-(tert-butyl)-1H-pyrazol-4-yl)amino)-2-oxoethyl)-3-fluoro-2-methyl-phenoxy)-N-(oxetan-3-ylmethyl) quinoline-6-carboxamide]	< 2.5 nM
CC(C)(C)n1cc(NC(=O)Cc2ncc(Oc3ncnc4ccc(O[C@H]5CCOC5)cc34)cc2F)cn1 [Compound 64, (S)-N-(1-(tert-butyl)-1H-pyrazol-4-yl)-2-(3-fluoro-5-((6-((tetrahydrofuran-3-yl)oxy)quinazolin-4-yl)oxy)pyridin-2-yl)acetamide]	67.5 nM
COc1ccc2nccc(Oc3cnc(CC(=O)Nc4cc(C(C)(C)C)[nH]n4)c(F)c3)c2c1 [Compound 13, N-(5-(tert-butyl)-1H-pyrazol-3-yl)-2-(3-fluoro-5-((6-methoxyquinolin-4-yl)oxy)pyridin-2-yl)acetamide]	3.5 nM
Cc1cc(CC(=O)Nc2cc(C(C)(C)C)n[nH]2)ccc1Oc1ccnc2ccc(S(C)(=O)=O)cc12 [Compound 87, N-(5-(tert-butyl)-1H-pyrazol-3-yl)-2-(3-methyl-4-((6-(methylsulfonyl)quinolin-4-yl)oxy)phenyl)acetamide]	< 2.5 nM
CCS(=O)(=O)c1ccc2nccc(Oc3ccc(CC(=O)Nc4cnn(C(C)(C)C)c4)c(F)c3C)c2c1 [Compound 173, N-(1-(tert-butyl)-1H-pyrazol-4-yl)-2-(4-((6-(ethylsulfonyl)quinolin-4-yl)oxy)-2-fluoro-3-methylphenyl)acetamide]	< 2.5 nM

Further lines, results first:

IC50	Compound
< 2.5 nM	Cc1cc(CC(=O)Nc2cnn(C(C)(C)C)c2)c(F)cc1Oc1ccnc2ccc(C(=O)N3[C@H](C)CCC[C@@H]3C)cc12 [Compound 450, N-(1-(tert-butyl)-1H-pyrazol-4-yl)-2-(4-((6-((2S,6R)-2,6-dimethylpiperidine-1-carbonyl)quinolin-4-yl)oxy)-2-fluoro-5-methylphenyl)acetamide]
< 2.5 nM	Cc1c(Oc2ccnc3ccc(S(=O)(=O)N4C[C@@H](C)N[C@@H](C)C4)cc23)ccc(CC(=O)Nc2cnn(C(C)(C)C)c2)c1F [Compound 387, N-(1-(tert-butyl)-1H-pyrazol-4-yl)-2-(4-((6-(((3R,5S)-3,5-dimethylpiperazin-1-yl)sulfonyl)quinolin-4-yl)oxy)-2-fluoro-3-methylphenyl)acetamide]
< 2.5 nM	CCn1nc(NC(=O)Cc2ccc(Oc3ccnc4ccc(S(C)(=O)=O)cc34)cc2F)cc1C(C)C [Compound 148, N-(1-ethyl-5-isopropyl-1H-pyrazol-3-yl)-2-(2-fluoro-4-((6-(methylsulfonyl)quinolin-4-yl)oxy)phenyl)acetamide]
< 2.5 nM	COc1cc2nccc(Oc3ccc(CC(=O)Nc4cnn(C(C)(C)C)c4)c(F)c3C)c2cc1P(C)(C)=O [Compound 382, N-(1-(tert-butyl)-1H-pyrazol-4-yl)-2-(4-((6-(dimethylphosphoryl)-7-methoxyquinolin-4-yl)oxy)-2-fluoro-3-methylphenyl) acetamide]
< 2.5 nM	Cc1c(Oc2ccnc3ccc(N4C(=O)CCC4C)cc23)ccc(CC(=O)Nc2cnn(C(C)(C)C)c2)c1F (single isomer, unassigned) [Compound 296, N-(1-(tert-butyl)-1H-pyrazol-4-yl)-2-(2-fluoro-3-methyl-4-((6-(2-methyl-5-oxopyrrolidin-1-yl)quinolin-4-yl)oxy)phenyl) acetamide]
7.8 nM	COc1ccc2ncnc(Oc3ccc(CC(=O)Nc4cc(C(C)(C)C)n(C)n4)c(F)c3)c2c1 [Compound 37, N-(5-(tert-butyl)-1-methyl-1H-pyrazol-3-yl)-2-(2-fluoro-4-((6-methoxy-quinazolin-4-yl)oxy)phenyl) acetamide]
< 2.5 nM	Cc1c(Oc2ccnc3ccc(C(=O)N[C@H]4C[C@H](O)C4)cc23)ccc(CC(=O)Nc2cnn(C(C)(C)C)c2)c1F [Compound 401, 4-(4-(2-((1-(tert-butyl)-1H-pyrazol-4-yl)amino)-2-oxoethyl)-3-fluoro-2-methyl-phenoxy)-N-((1r,3r)-3-hydroxy-cyclobutyl) quinoline-6-carboxamide]
< 2.5 nM	Cc1c(Oc2ccnc3ccc(C(=O)N(C)CCO)cc23)ccc(CC(=O)Nc2cnn(C(C)(C)C)c2)c1F [Compound 340, 4-(4-(2-((1-(tert-butyl)-1H-pyrazol-4-yl)amino)-2-oxoethyl)-3-fluoro-2-methyl-phenoxy)-N-(2-hydroxyethyl)-N-methyl-quinoline-6-carboxamide]
< 2.5 nM	Cc1cc(CC(=O)Nc2cnn(C(C)(C)C)c2)ccc1Oc1ccnc2ccc(S(C)(=N)=O)cc12 (centres unmarked) [Compound 76, N-(1-(tert-butyl)-1H-pyrazol-4-yl)-2-(3-methyl-4-((6-(S-methylsulfonimidoyl)quinolin-4-yl)oxy)phenyl) acetamide]
< 2.5 nM	Cc1cc(CC(=O)Nc2cc(C(C)(C)O)[nH]n2)ccc1Oc1ccnc2ccc(S(C)(=O)=O)cc12 [Compound 236, N-(5-(2-hydroxypropan-2-yl)-1H-pyrazol-3-yl)-2-(3-methyl-4-((6-(methylsulfonyl)quinolin-4-yl)oxy)phenyl)acetamide]
< 2.5 nM	Cc1c(Oc2ccnc3ccc(C(=O)NC4CC(F)(F)C4)cc23)ccc(CC(=O)Nc2cnn(C(C)(C)C)c2)c1F [Compound 406, 4-(4-(2-((1-(tert-butyl)-1H-pyrazol-4-yl)amino)-2-oxoethyl)-3-fluoro-2-methylphenoxy)-N-(3,3-difluorocyclobutyl)quinoline-6-carboxamide]
< 2.5 nM	CC(C)(C)n1cc(NC(=O)Cc2ccc(Oc3ccnc4ccc(OC5CCNCC5)cc34)cc2F)cn1 [Compound 81, N-(1-(tert-butyl)-1H-pyrazol-4-yl)-2-(2-fluoro-4-((6-(piperidin-4-yloxy)quinolin-4-yl)oxy)phenyl) acetamide]
< 2.5 nM	CCNC(=O)c1ccc2nccc(Oc3ccc(CC(=O)Nc4cnn(C(C)(C)C)c4)c(F)c3C)c2c1 [Compound 338, 4-(4-(2-((1-(tert-butyl)-1H-pyrazol-4-yl)amino)-2-oxoethyl)-3-fluoro-2-methyl-phenoxy)-N-ethylquinoline-6-carboxamide]
< 2.5 nM	Cc1cc(CC(=O)Nc2cnn(C(C)(C)C)c2)c(F)cc1Oc1ccnc2ccc(C(=O)O)cc12 [Compound 358, 4-(4-(2-((1-(tert-butyl)-1H-pyrazol-4-yl)amino)-2-oxoethyl)-5-fluoro-2-methyl-phenoxy) quinoline-6-carboxylic acid]
< 2.5 nM	Cc1cc(CC(=O)Nc2cnn(C3CCCC3)c2)ccc1Oc1ccnc2ccc(S(C)(=O)=O)cc12 [Compound 214, N-(1-cyclopentyl-1H-pyrazol-4-yl)-2-(3-methyl-4-((6-(methylsulfonyl)quinolin-4-yl)oxy)phenyl)acetamide]
